Laboratory results as given in patent US4138492A, “Aromatic amides of heterocyclic compounds and therapeutic compositions containing same” (priority 1974, dated 1979).
Structures can show the parent of a compound that is named as a salt. Where two headings read alike, the source gives them in different places.

Columns and labels:
[1] = system: apomorphine-induced gnawing; assay: Antiapomorphine activity (apomorphine-induced gnawing) in the rat; type: in vivo
Source text: A number of the compounds of the present invention were screened in parallel with metoclopramide for potential anti-emetic effects against apomorphine-induced gnawing in the rat and as local anaesthetics on the rat sciatic nerve (Table I).
*Antiapomorphine activity in rat scored as […]

in vivo = details: rat, po
[2] = Pharmacokinetics after oral administration of high doses of the malate salt; type: in vivo
healthy male volunteers = assay: Acute tolerance following intramuscular and intravenous administration in humans; type: in vivo
Description: Another study has been made to investigate the acute tolerance of the malate salt of Clebopride following intramuscular and intravenous administration in humans.
The subjects used were healthy male volunteers between 20 and 24 years of age and were divided into 8 groups and dosed with the test compound according to the following scheme:
Group I: 1 mg intramuscular per day for 5 days
Group II: 1.5 mgs intrasmuscular per day for 5 days
Group III: 2 mgs intramuscular per day for 5 days
Group IV: 0.25 mg intravenously per day for 5 days
Group V: 0.50 mg intravenously per day for 5 days
Group VI: 1 mg intravenously per day for 5 days
Group VII: 1.5 mgs intravenously per day for 5 days
Group VIII: 2 mgs intravenously per day for 5 days
The parameters evaluated were subjective symptoms; psychic disturbances; neurological disturbances; autonomic symptoms; digestive disturbances; urogenital disturbances; skin and mucous membranes; pulse; blood pressure; temperature; other side effects; blood analysis--leucocytes formula, hemoglobin content, erythrocyte sedimentation rate, glucose, cholesterol, urea, hepatic function tests, transaminasas; and urine analysis--density, albumin, sediment.

[3] = system: convulsions induced by strychnine; assay: Strychnine-induced convulsions in the mouse; type: in vivo
oxotremorine = details: mouse, in vivo
[4] = system: spontaneous motor activity; details: mouse, in vivo
catatonia in rats = details: rat, in vivo
[5] = system: gastric emptying time in humans; assay: Gastric emptying in humans, evaluated by radiologist; type: in vivo; parameters: key to effect on gastric emptying: +: no effect; ++: moderate effect; +++: good effect; ++++: maximum effect; details: 10-20 mgs; as a guide
Source text: The evaluation was based on the subjective opinion of the radiologist in terms of the time required for the appearance of peristaltic waves and their capacity to evacuate. the stomach, according to the following scheme:

incoordination = details: mouse, in vivo
[6] = system: apomorphine-induced vomiting; assay: Apomorphine-induced vomiting in the dog; type: in vivo; details: Canis lupus familiaris, po, per os, Table II, read-out: ED50 (95% confidence limits), apomorphine induced vomiting
[7] = Rattus norvegicus, po; per os; Table I; read-out: ED50 Values
[8] = Rattus norvegicus; read-out: Antiapomorphine in rat
[9] = compared with metoclopramide; from Table I

**Q.** Which ED50 [1, 7] does the source give for `COc1cc(N)ccc1C(=O)NC1CCN(Cc2ccccc2)CC1` [Compound 8, N-[4'-(1'-benzyl)-piperidyl]-2-methoxy-4-aminobenzamide dihydrochloride] here?
**A.** < 25 mg/kg

**Q.** What about the minimal effective dose [1, 8] of the same compound?
**A.** 6.25 mg/kg

**Q.** What about the “activity as an anti-emetic” value [1, 9] of the same compound?
**A.** more active as an anti-emetic

**Q.** For `COc1cc(NC(=O)CCl)c(Cl)cc1C(=O)NC1CCN(Cc2ccccc2)CC1` [Compound 3, N-[4'-(1'-benzyl)piperidyl]-2-methoxy-4-(α-chloroacetamido)-5-chlorobenzamide hydrochloride], which ED50 [1, 7] is on record?
**A.** < 25 mg/kg

**Q.** What about the minimal effective dose [1, 8] of the same compound?
**A.** 6.25 mg/kg

**Q.** And the “activity as an anti-emetic” value [1, 9]?
**A.** more active as an anti-emetic

**Q.** What does the source list for `COc1cc(NC(=O)CN2CCCCC2)c(Cl)cc1C(=O)NC1CCN(Cc2ccccc2)CC1` [Compound 4, N-[4'-(1'-benzyl)piperidyl] -2-methoxy-4-α-(1"-piperidyl) acetamido-5-chlorobenzamide dihydrochloride]?
**A.** ED50 [1, 7]: ~12 mg/kg; minimal effective dose [1, 8]: 12.5 mg/kg

**Q.** What does the source list for `COc1cc(NC(C)=O)c(Cl)cc1C(=O)NC1CCN(Cc2ccccc2)CC1` [Compound 1, N-[4'-(1'-benzyl)piperidyl]-2-methoxy-4-acetamido-5-chlorobenzamide]?
**A.** ED50 [1, 7]: ~25 mg/kg; minimal effective dose [1, 8]: 12.5 mg/kg

**Q.** Which minimal effective dose [1, 8] does the source give for `COc1cc(N)c(Cl)cc1C(=O)NC1CCN(Cc2cccs2)CC1` [Compound 14] here?
**A.** 12.5 mg/kg

**Q.** Which results are given for `COc1cc(NC(=O)C(F)(F)F)ccc1C(=O)NC1CCN(Cc2ccccc2)CC1` [Compound 7, N-[4'-(1'-benzyl)piperidyl]-2-methoxy-4-(α,α,α-trifluoroacetamido) benzamide hydrochloride]?
**A.** ED50 [1, 7]: < 25 mg/kg; minimal effective dose [1, 8]: 25 mg/kg

**Q.** Which minimal effective dose [1, 8] does the source give for `COc1cc(N)c(Cl)cc1C(=O)NC1CCN(CC=Cc2ccccc2)CC1` [Compound 16, N-[4'-(1'-cinnamyl)-piperidyl]-2-methoxy-4-amino-5-chlorobenzamide hydrochloride] here?
**A.** 25 mg/kg

**Q.** Which minimal effective dose [1, 8] does the source give for `O=C(CCl)Nc1ccc(C(=O)NC2CCN(Cc3ccccc3)CC2)cc1` [Compound 6, N-[4'-(1'-benzyl)piperidyl]-4-(α-chloroacetamido) benzamide hydrochloride] here?
**A.** 50 mg/kg

**Q.** With `COc1cccc(CN2CCC(NC(=O)c3cc(Cl)c(N)cc3OC)CC2)c1` [Compound 13, N-[4'-(1'-m-methoxy-benzyl)-piperidyl]-2-methoxy-4-amino-5-chloro-benzamidehydrochloride] as the compound, how does the minimal effective dose [1, 8] read?
**A.** 25 mg/kg

**Q.** What does the source list for `COc1ccc(CN2CCC(NC(=O)c3cc(Cl)c(N)cc3OC)CC2)cc1` [Compound 18, N-[4'-(1'-p-methoxy-benzyl)-piperidyl]-2-methoxy-4-amino-5-chloro-benzamidehydrochloride]?
**A.** minimal effective dose [1, 8]: 3.12 mg/kg; activity as an anti-emetic [1, 9]: more active as an anti-emetic

**Q.** With `COc1ccc(S(N)(=O)=O)cc1C(=O)NC1CCN(Cc2ccccc2)CC1` [N-[4'-(1'-benzyl)piperidyl]-2-methoxy-5-sulphamoylbenzamide hydrochloride] as the compound, how does the “antiapomorphine activity in the rat” value ([1]; even at high doses) read?
**A.** do not exhibit antiapomorphine activity in the rat even at high doses

**Q.** With `COc1cc(NC(=O)C(F)(F)F)c(Cl)cc1C(=O)NC1CCN(Cc2ccccc2)CC1` [Compound 9, N-[4'-(1'-benzyl)piperidyl]-2-methoxy-4-(α,α, α-trifluoroacetamido)-5-chlorobenzamide hydrochloride] as the compound, how does the ED50 [1, 7] read?
**A.** < 25 mg/kg

**Q.** And the minimal effective dose [1, 8]?
**A.** 3.12 mg/kg

**Q.** What about the “activity as an anti-emetic” value [1, 9] of the same compound?
**A.** more active as an anti-emetic

**Q.** Which minimal effective dose [1, 8] does the source give for `COc1ccccc1CN1CCC(NC(=O)c2cc(Cl)c(N)cc2OC)CC1` [Compound 20, N-[4'-(1'-o-methoxy-benzyl)-piperidyl]-2-methoxy-4-amino-5-chloro-benzamide] here?
**A.** 25 mg/kg

**Q.** Which minimal effective dose [1, 8] does the source give for `COc1ccc(Cl)cc1C(=O)NC1CCN(Cc2ccccc2)CC1` [Compound 10, N-[4'-(1'-benzyl)piperidyl]-2-methoxy-5-chlorobenzamide hydrochloride] here?
**A.** 50 mg/kg

**Q.** Which minimal effective dose [1, 8] does the source give for `COc1cc(N)c(Cl)cc1C(=O)NC1CCN(Cc2ccc(Cl)cc2)CC1` [Compound 12, N-[4'-(1'-p-chlorobenzyl)-piperidyl]-2-methoxy-4-amino-5-chloro-benzamide hydrochloride] here?
**A.** 3.12 mg/kg

**Q.** And the “activity as an anti-emetic” value [1, 9]?
**A.** more active as an anti-emetic

**Q.** Which minimal effective dose [1, 8] does the source give for `COc1cc(N)c(Cl)cc1C(=O)NC1CCN(Cc2ccccc2Cl)CC1` [Compound 21, N-[4'-(1'-o-chlorobenzyl)-piperidyl]-2-methoxy-4-amino-5-chloro-benzamide hydrochloride] here?
**A.** 25 mg/kg

**Q.** Which minimal effective dose [1, 8] does the source give for `COc1cc(N)c(Cl)cc1C(=O)NC1CCN(C(c2ccccc2)c2ccccc2)CC1` [Compound 19, N-[4'-(1'-diphenyl-methyl)-piperidyl]-2-methoxy-4-amino-5-chloro-benzamide hydrochloride] here?
**A.** 50 mg/kg

**Q.** Which results are given for `CN(C)CCCN1c2ccccc2Sc2ccc(Cl)cc21` [Chlorpromazine, reference compound]?
**A.** TD50 (in vivo): 12.3 mg/kg; ED50 ([1]; Rattus norvegicus, po, read-out: Antiapomorphine Activity, Rats, ED50 (95% confidence limits)): 7.95 mg/kg; minimal effective dose ([1]; Rattus norvegicus, read-out: Antiapomorphine in rat): 6.25 mg/kg

**Q.** Which minimal effective dose [1, 8] does the source give for `COc1cc(N)c(Cl)cc1C(=O)NC1CCN(Cc2cccc(Cl)c2)CC1` [Compound 17, N-[4'-(1'-m-chlorobenzyl)-piperidyl]-2-methoxy-4-amino-5-chloro-benzamide hydrochloride] here?
**A.** 12.5 mg/kg

**Q.** What does the source list for `COc1cc(N)c(Cl)cc1C(=O)NC1CCN(Cc2ccccc2)CC1` [malate salt of Clebopride, N-[4'-(1'-benzyl)piperidyl]-2-methoxy-4-amino-5-chlorobenzamide malate]?
**A.** absorption ([2]; high doses): good absorption; appearance of metabolites in blood ([2]; high doses): rapid appearance of metabolites in blood; peak levels ([2]; high doses): rapidly appearing peak levels; plasma concentrations ([2]; high doses): relatively low plasma concentrations; first pass metabolism and/or uptake in the liver ([2]; suggested): extensive first pass metabolism and/or uptake take place in the liver; side effects (healthy male volunteers; Group I: 1 mg intramuscular per day for 5 days, four subjects): one case of slight sleepiness was noted from the second day of treatment; side effects (healthy male volunteers; Group II: 1.5 mgs intramuscular per day for 5 days, four subjects): Tiredness, sleepiness and fatigue in three of the four subjects in Group II accompanied with slight depression; side effects (healthy male volunteers; Group III: 2 mgs intramuscular per day for 5 days, four subjects): Three of the four subjects in Group III showed sleepiness, fatigue and depression followed by euphoria; blood and urine analysis (healthy male volunteers; Groups II and VII): no significant variations; dose dependence of side effects (healthy male volunteers; Groups IV to VIII, intravenous): not to be dose dependent; side effects (healthy male volunteers; Groups IV to VIII: 0.25 to 2 mgs intravenously per day for 5 days): Sleepiness, fatigue and depression of medium intensity were seen in many patients; additional side effects (healthy male volunteers; Groups VII and VIII: 1.5 and 2 mgs intravenously per day for 5 days): some degree of sweating, hypersalivation and dryness of the mouth were variously seen

**Q.** Which minimal effective dose [1, 8] does the source give for `COc1cc(N)c(Cl)cc1C(=O)NC1CCN(Cc2ccc3c(c2)OCO3)CC1` [Compound 15] here?
**A.** 6.25 mg/kg

**Q.** And the “activity as an anti-emetic” value [1, 9]?
**A.** more active as an anti-emetic

**Q.** For `CCN(CC)CCNC(=O)c1cc(Cl)c(N)cc1OC` [Metoclopramide, reference compound], which “inhibition of convulsions induced by strychnine” value [3] is on record?
**A.** neither Clebopride nor metoclopramide appear to inhibit convulsions induced by strychnine

**Q.** And the salivation and tremors (oxotremorine)?
**A.** capable of causing salivation and tremors

**Q.** What about the spontaneous motor activity [4] of the same compound?
**A.** inhibit spontaneous motor activity

**Q.** And the TD50 (in vivo)?
**A.** 93 mg/kg

**Q.** What about the “antiemetic doses compared with those causing catatonia” value (catatonia in rats) of the same compound?
**A.** at doses which are far removed from those causing catatonia

**Q.** What about the “effect on gastric emptying” value [5] of the same compound?
**A.** +++

**Q.** What about the incoordination (incoordination) of the same compound?
**A.** cause incoordination

**Q.** And the ED50 [1, 7]?
**A.** ~6 mg/kg

**Q.** What about the ED50 ([1]; Rattus norvegicus, po; rats; per os; Table III; read-out: Antiapomorphine Activity, Rats, ED50 (95% confidence limits)) of the same compound?
**A.** 11.8 mg/kg

**Q.** And the minimal effective dose [1, 8]?
**A.** 12.5 mg/kg

**Q.** What about the ED50 [6] of the same compound?
**A.** 0.343 mg/kg

**Q.** With `COc1cc(NC(=O)CCl)ccc1C(=O)NC1CCN(Cc2ccccc2)CC1` [Compound 5, N-[4'-(1'-benzyl)piperidyl]-2-methoxy-4-α-chloroacetamidobenzamide hydrochloride] as the compound, how does the minimal effective dose [1, 8] read?
**A.** 25 mg/kg
